Here are results for seven compounds from publication PMC12281142, “A potent phenylalkylamine disrupts mycobacterial membrane bioenergetics and augments bactericidal activity of bedaquiline” (iScience, 2025).

≈ marks a conversion by molar mass, not a printed value. Where “and” joins values, the source holds several entries; their conditions need not be identical. Equal values may be shown once. Read-outs that look alike come from different tables or passages of the source.

The test system of one series is Mab abscessus ATCC 19977. In words: MIC against Mab abscessus ATCC 19977. The class given is cell-based, Mycobacterium abscessus subsp. abscessus. As to conditions: Mycobacteroides abscessus; for MIC50: ATCC19977, 72 h, 3 days.
The next series concerns Mab abscessus. In words: Time-kill kinetics, Mab abscessus. The class given is cell-based, Mycobacterium abscessus subsp. abscessus. As to conditions: BDQ alone 4x to 32x MIC90 (0.84–6.7 μg/mL).
The subject of series [1] is M. bovis BCG. The class given is cell-based, Mycobacterium bovis BCG.
For series [2], the system named is M. bovis BCG. In words: microbe, parasite or virus in culture. Format: cell-based, Mycobacterium bovis BCG. As to conditions: for MIC50 / MIC90: Mycobacterium tuberculosis variant bovis BCG, BCG.
For series [3], the system named is M. bovis BCG. Format: cell-based, Mycobacterium bovis BCG. As to conditions: 15 μM or 8 μg/mL, equivalent to 230x MIC50.
The test system of series [4] is Mab bolletii CCUG 50184-T. Put plainly: MIC against Mab bolletii CCUG 50184-T. The class given is cell-based, Mycobacterium abscessus subsp. bolletii. Conditions: Mycobacteroides abscessus; for MIC50: CCUG50184, 72 h, 3 days.
In the next series the test system is Mab complex. Put plainly: MIC against Mab complex (summary over the 3 subspecies). Format: cell-based, Mycobacterium abscessus. Conditions: Mycobacteroides abscessus, read-out: MIC90 Mab complex.
For series [5], the system named is Mab massiliense CCUG 48898-T. In words: MIC against Mab massiliense CCUG 48898-T. Format: cell-based, Mycobacterium abscessus subsp. massiliense. As to conditions: Mycobacteroides abscessus; for MIC50: CCUG48898, 72 h, 3 days.
A further series concerns clinical isolates of Mab. In words: MIC50 against Mab clinical isolates. The class given is cell-based, Mycobacterium abscessus. Conditions: Mycobacteroides abscessus.
The test system of another series is Mtb H37Rv. As to conditions: minimum concentration to inhibit growth of Mtb H37RV by 99%; cited from earlier work.
The test system of series [6] is M. bovis BCG. The class given is cell-based, Mycobacterium bovis BCG. Conditions: 0.5x to 4x MIC90BCG.
Series [7] relates to M. bovis BCG. Format: cell-based, Mycobacterium bovis BCG. As to conditions: 2x MIC90BCG over 48 h.
Series [8] deals with M. bovis BCG. The class given is cell-based, Mycobacterium bovis BCG. As to conditions: 24 h.
For series [9], the system named is M. bovis BCG. As to conditions: 2x MIC90 over 24 h.
A further series relates to M. bovis BCG-pclgR-RFP. The class given is cell-based, Mycobacterium bovis BCG. As to conditions: 0.25x – 2x MIC90 (controls 10 μM), 24 h.
In series [10] the test system is M. bovis BCG. Format: cell-based, Mycobacterium bovis BCG. Conditions: PhA2 2x–4x MIC90BCG, TDZ 80 μM, 24 h.
The mark [11] stands for this setting: M. bovis BCG, broth dilution, growth reduced by 50% vs untreated.
The mark [12] stands for this setting: M. bovis BCG, broth dilution, growth reduced by 90% vs untreated.
The mark [13] stands for this setting: read-out: MIC90 BCG, M. bovis BCG.
Setting [14] is: 7H9 medium (first value of cell).
Setting [15] is: CA-MHB medium (second value of cell).
The mark [16] stands for this setting: read-out: MIC90 (Table S1), M. bovis BCG, broth dilution.

As to `COc1nc2ccc(Br)cc2cc1[C@@H](c1ccccc1)[C@@](O)(CCN(C)C)c1cccc2ccccc12` [BDQ, bedaquiline], the MIC90 is 0.37 µM and 0.21 µg/mL in the series with Mab abscessus ATCC 19977 (ATCC19977, Mab abscessus, read-out: MIC90 abscessus); 0.25 µM against M. bovis BCG [2] (setting [12]); 0.14 µg/mL in the series with M. bovis BCG [2] (setting [13]). Besides, the bactericidal activity result in the series on Mab abscessus is “none to be bactericidal”. Further, the “reduction in CFU” value in the series with M. bovis BCG [1] (BDQ alone 4x MIC90BCG (0.56 μg/mL), 28-day time point) was determined as 10 fold. In addition, the MIC50 came to 0.065 µM against M. bovis BCG [2] (setting [11]) and 0.036 µg/mL in the series with M. bovis BCG [2] (read-out: MIC50 BCG). Besides, in the series on M. bovis BCG [3], the oxygen consumption rate result is recorded as “sharp increase in OCR”.
Regarding `CC[C@H]1OC(=O)[C@H](C)[C@@H](O[C@H]2C[C@@](C)(OC)[C@@H](O)[C@H](C)O2)[C@H](C)[C@@H](O[C@@H]2O[C@H](C)C[C@H](N(C)C)[C@H]2O)[C@](C)(OC)C[C@@H](C)C(=O)[C@H](C)[C@@H](O)[C@]1(C)O` [CLR, clarithromycin, reference compound], the MIC90 is 19 µM (≈ 14.2 µg/mL) in [4] (CCUG50184, 7H9 broth (first value)); 11 µM (≈ 8.23 µg/mL) in series [4] (CCUG50184, camH broth (second value)); 0.5 µM (≈ 0.374 µg/mL) in the series with Mab abscessus ATCC 19977 (ATCC19977, 7H9 broth (first value), read-out: MIC90 Mab abscessus ATCC 19977); 0.4 µM (≈ 0.299 µg/mL) with Mab abscessus ATCC 19977 (ATCC19977, camH broth (second value), read-out: MIC90 Mab abscessus ATCC 19977); 0.1 to 8.8 µM with Mab complex; 0.08 to 6.6 µg/mL in the series on Mab complex (range over subspecies, positive control). Further, the MIC90 worked out at 2 µM (≈ 1.5 µg/mL) in [5] (CCUG48898, 7H9 broth (first value)) and 0.23 µM (≈ 0.172 µg/mL) in series [5] (CCUG48898, camH broth (second value)). Moreover, the MIC50 in series [4] (setting [14]) amounted to 8.8 µM (≈ 6.58 µg/mL); in series [4] (setting [15]), 1 µM (≈ 0.748 µg/mL); in the series with Mab abscessus ATCC 19977 (setting [14]) it was 0.2 µM (≈ 0.15 µg/mL); with Mab abscessus ATCC 19977 (setting [15]) it was 0.15 µM (≈ 0.112 µg/mL); in [5] (setting [14]), 0.5 µM (≈ 0.374 µg/mL); in [5] (setting [15]), 0.1 µM (≈ 0.0748 µg/mL). Moreover, the MIC50 in the series on clinical isolates of Mab (Mab clinical isolate M9, 7H9 broth, read-out: MIC50 M9) was 0.1 µM (≈ 0.0748 µg/mL); with clinical isolates of Mab (Mab clinical isolate M111, 7H9 broth, read-out: MIC50 M111) it was 0.08 µM (≈ 0.0598 µg/mL); in the series with clinical isolates of Mab (Mab clinical isolate M232, 7H9 broth, read-out: MIC50 M232) it was 0.27 µM (≈ 0.202 µg/mL); in the series on clinical isolates of Mab (Mab clinical isolate M337, 7H9 broth, read-out: MIC50 M337), 0.15 µM (≈ 0.112 µg/mL); in the series on clinical isolates of Mab (Mab clinical isolate M404, 7H9 broth, read-out: MIC50 M404), 0.1 µM (≈ 0.0748 µg/mL); with clinical isolates of Mab (Mab clinical isolate M422, 7H9 broth, read-out: MIC50 M422), 0.22 µM (≈ 0.165 µg/mL). Moreover, the MIC50 in the series on clinical isolates of Mab (Mab clinical isolate M506, 7H9 broth, read-out: MIC50 M506) was 0.09 µM (≈ 0.0673 µg/mL).
As to `COc1ccc(C(C#N)(CCCN2CCN(c3ccccc3F)CC2)C(C)C)cc1OC` (stereo not shown) [Compound A1, reference compound], the “MIC99 Mtb” value with Mtb H37Rv is 62.5 µM (≈ 27.5 µg/mL). Further, the MIC50 with M. bovis BCG [2] (setting [11]) stood at 87 µM. Besides, the MIC90 against M. bovis BCG [2] (setting [12]) and with M. bovis BCG [2] (setting [16]) was 138 µM in each case.
As to `COc1ccc(CCN(C)CCCC(C#N)(c2ccc(OC)c(OC)c2)C2CCCCC2)cc1OC` (stereo not shown) [Compound A2, reference compound], the “MIC99 Mtb” value in the series on Mtb H37Rv was 62.5 µM (≈ 30.9 µg/mL). Moreover, the MIC50 in the series on M. bovis BCG [2] (setting [11]) came to 36 µM. Besides, the MIC90 against M. bovis BCG [2] (setting [12]) and with M. bovis BCG [2] (setting [16]) was 118 µM in each case.
Turning to `NNC(=O)c1ccncc1` [INH, isoniazid, reference compound], in the series with M. bovis BCG [6], the “formazan formation from MTS” value is given as “increased formazan formation”. The “regrowth in time-kill curve” value in the series on M. bovis BCG [1] (2xMIC90BCG, 21 days) was “uptick in CFUs was observed after 5 days”. Also, the “effect on ATP levels” value in the series with M. bovis BCG [7] is reported as “marked surge in ATP levels”. Further, the “methylene blue decolorization (O2 uptake)” value with M. bovis BCG [8] (4xMIC90BCG (1.6 μg/mL)) was “Decolorization (active O2 uptake)”. In addition, the “MIC90 BCG” value against M. bovis BCG [2] (M. bovis BCG) was 0.4 µg/mL (≈ 2.92 µM). The MIC90 turned out to be 3.4 µM with M. bovis BCG [2] (setting [12]), 3.5 µM in the series on M. bovis BCG [2] (setting [16]) and 0.45 µg/mL with M. bovis BCG [2] (setting [13]). Also, the membrane permeabilization result with M. bovis BCG [9] is reported as “negligible permeabilization”.
On to `CO[C@H]1/C=C/O[C@@]2(C)Oc3c(C)c(O)c4c(O)c(c(/C=N/N5CCN(C)CC5)c(O)c4c3C2=O)NC(=O)/C(C)=C\C=C\[C@H](C)[C@H](O)[C@@H](C)[C@@H](O)[C@@H](C)[C@H](OC(C)=O)[C@@H]1C` [RIF, rifampin, reference compound], for which the “induction of pclgR promoter activity” value in the series with M. bovis BCG-pclgR-RFP is given as “No induction”. The MIC90 in the series on M. bovis BCG [2] (read-out: MIC90 BCG) is 0.04 µM and 0.033 µg/mL.
For `CSc1ccc2c(c1)N(CCC1CCCCN1C)c1ccccc1S2` (stereo not shown) [TDZ, thioridazine, reference compound], the “NADH/NAD+ ratio” value with M. bovis BCG [10] is recorded as “higher ratios”. Besides, the “methylene blue decolorization (O2 uptake)” value in the series on M. bovis BCG [8] (80 μM, 30 μg/mL) is given as “No decolorization”. Besides, the MIC90 against M. bovis BCG [2] (setting [12]) came out at 30 µM; in the series on M. bovis BCG [2] (setting [13]), 11 µg/mL.
